The values below come from publication PMC11206988, “Study on the Effect of Pharmaceutical Excipient PEG400 on the Pharmacokinetics of Baicalin in Cells Based on MRP2, MRP3, and BCRP Efflux Transporters” (Pharmaceutics, 2024).

Read-outs that look alike come from different tables or passages of the source.

The target in this data set is T1, BCRP (Homo sapiens, UniProt Q9UNQ0).
T1 construct: expressed in transfected cells; host or cells: MDCK II
T1 sequence (Q9UNQ0 1-655): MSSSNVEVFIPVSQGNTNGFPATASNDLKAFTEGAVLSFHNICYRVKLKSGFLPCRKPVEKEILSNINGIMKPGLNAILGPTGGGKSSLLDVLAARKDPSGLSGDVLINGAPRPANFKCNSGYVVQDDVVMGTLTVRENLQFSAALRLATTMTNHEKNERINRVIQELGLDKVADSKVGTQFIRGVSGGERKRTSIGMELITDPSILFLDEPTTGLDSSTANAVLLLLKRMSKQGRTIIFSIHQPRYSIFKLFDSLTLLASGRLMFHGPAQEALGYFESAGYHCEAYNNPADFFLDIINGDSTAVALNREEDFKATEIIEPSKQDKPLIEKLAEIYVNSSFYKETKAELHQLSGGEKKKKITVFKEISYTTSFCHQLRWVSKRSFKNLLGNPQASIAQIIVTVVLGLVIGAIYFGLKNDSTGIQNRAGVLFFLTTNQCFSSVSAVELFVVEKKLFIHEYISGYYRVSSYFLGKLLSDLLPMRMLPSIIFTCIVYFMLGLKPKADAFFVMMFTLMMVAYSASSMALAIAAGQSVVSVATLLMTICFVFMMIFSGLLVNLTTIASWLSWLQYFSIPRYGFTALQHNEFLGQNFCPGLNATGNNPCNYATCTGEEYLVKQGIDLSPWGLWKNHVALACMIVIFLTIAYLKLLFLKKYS
As to the kind of experiment: Transport of baicalin across MDCK II-BCRP cell monolayer (transwell). Type of data set: in vitro ADME. The settings on record: pH 7.4, MDCK II-BCRP. The method, then: The cells were inoculated at a density of 0.5 mL (1 × 10^5) in the upper layer of the transwell plate (AP side), and the culture was changed daily after the lower layer was added with 1.5 mL of complete medium without cells every other day. After 5–7 days of growth, the supernatant was aspirated and discarded, and the cell monolayer was rinsed twice with 37 °C Hank’s Balanced Salt Solution (HBSS, pH 7.4). The electrical resistance of the cell monolayer compartments was measured with a resistivity meter (TEER), and the integrity of the cell monolayer was monitored using TEER. The differentiation of MDCK II-WT, MDCK II-MRP2, MDCK II-MRP3, and MDCK II-BCRP cells was examined by determining sodium fluorescein permeability prior to transit experiments. This was done in order to determine the integrity of the cell monolayer. When the TEER value of the cell monolayer was greater than 150 Ω·cm^2 and the MDCK II-MRP2, MDCK II-MRP3, and MDCK II-BCRP sodium fluorescein permeability was less than 0.5 × 10^−6 cm/s or the MDCK II-WT sodium fluorescein permeability was less than 1 × 10^−6 cm/s, the cell monolayer was considered intact and suitable for transit experiments. TEER = (TEERcell monolayer − TEERblank) × Aarea(1) wherein TEERcell monolayer is the resistance of the cell monolayer read directly from the Millicell ERS-2 resistivity meter, and TEERblank is the resistance read by inserting a blank HBSS (no cells) only. Aarea is the surface area of the filter membrane, 1.12 cm^2.
In this experiment, a 100 μM baicalin solution (dissolved in HBSS) containing different concentrations of PEG400 (0.25%, 0.5%, and 1%) was employed as the test solution, while a solution without PEG400 was used as the blank test solution, which was added to AP or BL chambers, respectively. In the top to basolateral (AP-BL) transport experiment, the 0.5 mL sample added to the apical side (AP) was utilized as the supply room, and the HBSS preheated to 1.5 mL 37 °C was added to the basolateral (BL) as the receiving chamber. Conversely, in the basal low lateral to top (BL-AP) transport experiment, the 1.5 mL sample (dissolved in HBSS) was added to the BL side as the supply room, and the 0.5 mL preheated HBSS was added as a receiving room on the AP side. Once the aforementioned steps had been completed, the transwell was placed on a 37 °C thermostatic oscillator at 60 r/min, and 100 μL was withdrawn from the receiving cell or 10 μL from the supply chamber at 30, 60, 90, and 120 min, depending on the experiment, and replenished with an equal volume of blank 37 °C preheated HBSS. The samples were utilized to precipitate the proteins with 100 μL of methanol containing the internal standard for 10 min. After centrifugation at 16,000× g for 15 min at 4 °C, the supernatant was collected in a volume of 70 μL. The contents were determined by UPLC-MS/MS, and apparent permeability coefficients (PAPP) and efflux ratios (ER) were calculated.
The formulas for calculating Papp and ER of monolayer and monolayer are as follows:(2) Papp=dQ/dt/AC0 wherein dQ/dt (ng/mL·s) is the transit rate (ng/mL·s); A is the membrane area (1.12 cm^2); and C0 (ng/mL) is the initial concentration of the sample in the supply chamber. ER = PappBL-AP/PappAP-BL (3) wherein PappBL-AP is the apparent permeability coefficient when the BL is added to the sample, and PappAP-BL is the apparent permeability coefficient when the sample is added at the top side (AP).

By Papp A→B is commonly meant the apparent permeability from the apical to the basolateral side of a cell layer. By Papp B→A is commonly meant the apparent permeability from the basolateral to the apical side of a cell layer. For `O=C(O)[C@H]1O[C@@H](Oc2cc3oc(-c4ccccc4)cc(=O)c3c(O)c2O)[C@H](O)[C@@H](O)[C@@H]1O` [BG, Baicalein-7-O-β-D-glucuronide], the apparent permeability from apical to basolateral (Papp A→B) at 120 min, 100 μM reads like this: (100 μM BG + 0.25% PEG400) 5.64 ± 0.48 ×10⁻⁶ cm/s; (100 μM BG + 0.5% PEG400) 7.4 ± 0.43 ×10⁻⁶ cm/s; (100 μM BG + 1% PEG400) 8.59 ± 0.19 ×10⁻⁶ cm/s; (100 μM BG alone) 3.43 ± 0.07 ×10⁻⁶ cm/s. The Papp B→A at 120 min, 100 μM is, setting by setting: (100 μM BG + 0.25% PEG400) 8.98 ± 0.42 ×10⁻⁶ cm/s; (100 μM BG + 0.5% PEG400) 7.51 ± 0.47 ×10⁻⁶ cm/s; (100 μM BG + 1% PEG400) 6.9 ± 0.04 ×10⁻⁶ cm/s; (100 μM BG alone) 10.34 ± 0.02 ×10⁻⁶ cm/s. The efflux ratio at 120 min, 100 μM reads like this: (100 μM BG + 0.25% PEG400, read-out: ER) 1.59 ± 0.06; (100 μM BG + 0.5% PEG400, read-out: ER) 1.02 ± 0.04; (100 μM BG + 1% PEG400, read-out: ER) 0.8 ± 0.02; (100 μM BG alone, read-out: ER) 3.01 ± 0.05.
